The results in this text go back to patent US20240150293A1, “SPIROCYCLOHEXANE DERIVATIVES, PHARMACEUTICAL COMPOSITIONS CONTAINING THEM AND THEIR USES AS ANTI-APOPTOTIC INHIBITORS” (LES LABORATOIRES SERVIER, priority 2021, published 2024).

Each structure is given as a SMILES string. Like-named read-outs stand apart in the source and are kept apart here. Some results are limits rather than exact numbers.

In assay [1] the test system is NCI-H929 cell lines. Briefly: In vitro cytotoxicity, CellTiter-Glo (CTG) assay (Example B, Method B). It counts as cell-based. Particulars: NCI-H929 cells, 48 h incubation, read-out: C50. The procedure: Cellular viability was monitored with the cell viability assay (Cell Titer-Glo®) on NCI-H929 cell lines. The CellTiter-Glo® (CTG) Luminescent Cell Viability Assay (from Promega) is a homogeneous method to determine the number of viable cells in culture based on quantitation of the ATP present, which signals the presence of metabolically active cells.
Concentration response of test compounds are performed with 10 mM stock solutions (DMSO), 11-points curve, in a 384-well compound plate. The assay plate is prepared by stamping 120 nL from compound dilution plate of all different concentrations (e.g. 10 mM to have final 30 μM assay test) into a cell culture microplate, using Echo acoustic liquid handling (Labcyte, Beckman). 40 μl of cell solution is added and cells are incubated with compounds for 48 h at 37° C., 5% CO2. CTG was added to the cells (according to the manufacturer instructions) and luminescence intensity was recorded using the Pherastar plate reader (BMG).
This assay provides in vitro cellular efficacy of compounds of Formula (I) tested, measuring the C50, defined as the concentration needed to reach 50% of the cellular viability.
In general terms: ATP-based viability assays read luminescence as a measure of living cells.

Assay [2] deals with Cy5-labelled Mcl1 (amino acids 171-321) C286S protein (UniProtKB Q07820) (Homo sapiens (Human), UniProt Q07820, C286S). Briefly: Inhibition of Mcl-1 by the fluorescence quenching assay (Example A, Method B). It counts as binding. The following applies: for inhibition at 1 µM: read-out: Mcl-1 inhibition, % at a single concentration. In outline: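 Cy5-labelled Mcl1 171-321 C286S (1 nM) quenched by TQ5WS-labelled PUMA peptide (10, 20 or 400 nM); displacement raises fluorescence (Ex 620/Em 680 nm). Buffer 10 mM HEPES, 150 mM NaCl, 0.05% Tween 20, pH 7.4, 5% DMSO; 2 h at room temperature, 11-point curves, IC50 converted to Ki (cKi/eKi).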
Chain of Cy5-labelled Mcl1 (amino acids 171-321) C286S protein (Q07820 171-321 C286S): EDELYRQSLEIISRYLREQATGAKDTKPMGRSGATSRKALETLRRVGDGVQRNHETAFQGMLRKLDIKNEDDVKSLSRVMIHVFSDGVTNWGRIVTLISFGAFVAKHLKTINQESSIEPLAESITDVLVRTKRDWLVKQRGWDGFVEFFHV

Broadly, the Ki is the equilibrium dissociation constant of an inhibitor or competing ligand from its target.

Regarding `CCOc1cc2c(cc1Cl)C[C@H](C[C@@H](C)COc1ccnc3c1[C@H](C)CCC3)[C@]21CC[C@](Nc2cccc(Cl)c2)(C(=O)O)CC1` [Example 816, (1r,2′S,4S)-5′-chloro-4-(3-chloroanilino)-6′-ethoxy-2′-[(2R)-2-methyl-3-{[(5R)-5-methyl-5,6,7,8-tetrahydroquinolin-4-yl]oxy}propyl]-2′,3′-dihydrospiro[cyclohexane-1,1′-indene]-4-carboxylic acid], the IC50 in assay [1] (Homo sapiens, NCI-H929, 48 h) turned out to be 101 nM. Moreover, the Ki in assay [2] amounted to 0.353 nM.

`C[C@@H](COc1ccnc2c1[C@H](C)CCC2)C[C@H]1Cc2ccc(COC3CCCO3)cc2[C@]12CC[C@@](Nc1cccc(Cl)c1)(C(=O)O)CC2` (stereo partly drawn) [Example 872, (1r,2′S,4S)-4-(3-chloroanilino)-2′-[(2R)-2-methyl-3-{[(5R)-5-methyl-5,6,7,8-tetrahydroquinolin-4-yl]oxy}propyl]-6′-{[(oxolan-2-yl)oxy]methyl}-2′,3′-dihydrospiro[cyclohexane-1,1′-indene]-4-carboxylic acid]: the IC50 in assay [1] (Homo sapiens, NCI-H929, 48 h) came to 52.9 nM. In addition, the Ki in assay [2] was 0.0505 nM.

In the case of `CC(OC(=O)OC1CCCC1)OC(=O)[C@]1(Nc2cccc(Cl)c2)CC[C@@]2(CC1)c1cc3c(cc1C[C@@H]2C[C@@H](C)COc1ccnc2c1[C@H](C)CCC2)OCO3` (stereo partly drawn) [Example 945, 1-{[(cyclopentyloxy)carbonyl]oxy}ethyl (1r,4S,6′S)-4-(3-chloroanilino)-6′-[(2R)-2-methyl-3-{[(5R)-5-methyl-5,6,7,8-tetrahydroquinolin-4-yl]oxy}propyl]-6′,7′-dihydro-2′H-spiro[cyclohexane-1,5′-indeno[5,6-d][1,3]dioxole]-4-carboxylate], the IC50 in assay [1] (Homo sapiens, NCI-H929, 48 h) was found to be 24700 nM. Also, in assay [2], the Ki turned out to be 162 nM.

Regarding `CC(C)OC(=O)OC(C)OC(=O)[C@]1(Nc2cccc(Cl)c2)CC[C@@]2(CC1)c1cc3c(cc1C[C@@H]2C[C@@H](C)COc1ccnc2c1[C@H](C)CCC2)OCO3` (stereo partly drawn) [Example 944, 1-({[(propan-2-yl)oxy]carbonyl}oxy)ethyl (1r,4S,6′S)-4-(3-chloroanilino)-6′-[(2R)-2-methyl-3-{[(5R)-5-methyl-5,6,7,8-tetrahydroquinolin-4-yl]oxy}propyl]-6′,7′-dihydro-2′H-spiro[cyclohexane-1,5′-indeno[5,6-d][1,3]dioxole]-4-carboxylate], in assay [1] (Homo sapiens, NCI-H929, 48 h), the IC50 turned out to be 2130 nM. In addition, the inhibition at 1 µM in assay [2] turned out to be 13.9%.

As for `C[C@@H](COc1ccnc2c1[C@H](C)CCC2)C[C@H]1Cc2ccc(CO)cc2[C@]12CC[C@@](Nc1cccc(Cl)c1)(C(=O)O)CC2` [Example 870, (1r,2′S,4S)-4-(3-chloroanilino)-6′-(hydroxymethyl)-2′-[(2R)-2-methyl-3-{[(5R)-5-methyl-5,6,7,8-tetrahydroquinolin-4-yl]oxy}propyl]-2′,3′-dihydrospiro[cyclohexane-1,1′-indene]-4-carboxylic acid], the IC50 in assay [1] (Homo sapiens, NCI-H929, 48 h) stood at 126 nM. The Ki in assay [2] was 0.0509 nM.

Consider `CCOC(=O)[C@]1(Nc2cccc(Cl)c2)CC[C@@]2(CC1)c1cc3c(cc1C[C@@H]2C[C@@H](C)COc1ccnc2c1[C@H](C)CCC2)OCO3` [Example 930, ethyl (1r,4S,6′S)-4-(3-chloroanilino)-6′-[(2R)-2-methyl-3-{[(5R)-5-methyl-5,6,7,8-tetrahydroquinolin-4-yl]oxy}propyl]-6′,7′-dihydro-2′H-spiro[cyclohexane-1,5′-indeno[5,6-d][1,3]dioxole]-4-carboxylate], for which the IC50 in assay [1] (Homo sapiens, NCI-H929, 48 h) is more than 30000 nM. In addition, the inhibition at 1 µM in assay [2] worked out at 4.5%.

Consider `Cc1ccc2c(c1)CN(C[C@@H](C)COc1ccnc3c1[C@H](C)CCC3)[C@]21CC[C@](Nc2cccc(Cl)c2C)(C(=O)O)CC1` [Example 53, (1s,4S)-4-(3-chloro-2-methylanilino)-5′-methyl-2′-[(2R)-2-methyl-3-{[(5R)-5-methyl-5,6,7,8-tetrahydroquinolin-4-yl]oxy}propyl]-2′,3′-dihydrospiro[cyclohexane-1,1′-isoindole]-4-carboxylic acid], for which, in assay [1] (Homo sapiens, NCI-H929, 48 h), the IC50 was found to be 451 nM. Moreover, in assay [2] (Ki determined from IC50), the Ki was 1.5 nM.

Consider `COC(=O)OC(C)OC(=O)[C@]1(Nc2cccc(Cl)c2)CC[C@@]2(CC1)c1cc3c(cc1C[C@@H]2C[C@@H](C)COc1ccnc2c1[C@H](C)CCC2)OCO3` (stereo partly drawn) [Example 943, 1-[(methoxycarbonyl)oxy]ethyl (1r,4S,6′S)-4-(3-chloroanilino)-6′-[(2R)-2-methyl-3-{[(5R)-5-methyl-5,6,7,8-tetrahydroquinolin-4-yl]oxy}propyl]-6′,7′-dihydro-2′H-spiro[cyclohexane-1,5′-indeno[5,6-d][1,3]dioxole]-4-carboxylate], for which the IC50 in assay [1] (Homo sapiens, NCI-H929, 48 h) is 228 nM. Besides, in assay [2], the Ki came out at 1 nM.

As for `COCCOCCOC(=O)[C@]1(Nc2cccc(Cl)c2)CC[C@@]2(CC1)c1cc3c(cc1C[C@@H]2C[C@@H](C)COc1ccnc2c1[C@H](C)CCC2)OCO3` [Example 933, 2-(2-methoxyethoxy)ethyl (1r,4S,6′S)-4-(3-chloroanilino)-6′-[(2R)-2-methyl-3-{[(5R)-5-methyl-5,6,7,8-tetrahydroquinolin-4-yl]oxy}propyl]-6′,7′-dihydro-2′H-spiro[cyclohexane-1,5′-indeno[5,6-d][1,3]dioxole]-4-carboxylate], in assay [1] (Homo sapiens, NCI-H929, 48 h), the IC50 stood at 18900 nM. Besides, the Ki in assay [2] was determined as 303 nM.

For `CC1COc2cc3c(cc2OC1)[C@]1(CC[C@@](Nc2cccc(Cl)c2)(C(=O)O)CC1)[C@@H](C[C@@H](C)COc1ccnc2c1[C@H](C)CCC2)C3` (single isomer, unassigned) [Example 982], the IC50 in assay [1] came out at 157 nM. For the same compound, the Ki in assay [2] was found to be 0.0264 nM.

`COC(=O)OCOC(=O)[C@]1(Nc2cccc(Cl)c2)CC[C@@]2(CC1)c1cc3c(cc1C[C@@H]2C[C@@H](C)COc1ccnc2c1[C@H](C)CCC2)OCO3` [Example 946, [(methoxycarbonyl)oxy]methyl (1r,4S,6′S)-4-(3-chloroanilino)-6′-[(2R)-2-methyl-3-{[(5R)-5-methyl-5,6,7,8-tetrahydroquinolin-4-yl]oxy}propyl]-6′,7′-dihydro-2′H-spiro[cyclohexane-1,5′-indeno[5,6-d][1,3]dioxole]-4-carboxylate]: the IC50 in assay [1] (Homo sapiens, NCI-H929, 48 h) amounted to 34.2 nM. In addition, in assay [2], the Ki was 11 nM.

Take `C[C@@H](COc1ccnc2c1[C@H](C)CCC2)C[C@H]1Cc2cc3c(cc2[C@]12CC[C@@](Nc1cccc(Cl)c1)(C(=O)O)CC2)OCC1(CCC1)CO3` [Example 995, (1″r,4″S,8′S)-4″-(3-chloroanilino)-8′-[(2R)-2-methyl-3-{[(5R)-5-methyl-5,6,7,8-tetrahydroquinolin-4-yl]oxy}propyl]-8′,9′-dihydro-2′H,4′H-dispiro[cyclobutane-1,3′-indeno[5,6-b][1,4]dioxepine-7′,1″-cyclohexane]-4″-carboxylic acid]: the IC50 in assay [1] (Homo sapiens, NCI-H929, 48 h) came to 108 nM. The Ki in assay [2] is 0.0885 nM.

On to `C[C@@H](COc1ccnc2c1[C@H](C)CCC2)C[C@H]1Cc2cc3c(cc2[C@]12CC[C@@](Nc1cccc(Cl)c1)(C(=O)O)CC2)OCC(F)(F)CO3` [Example 996, (1r,4S,8′S)-4-(3-chloroanilino)-3′,3′-difluoro-8′-[(2R)-2-methyl-3-{[(5R)-5-methyl-5,6,7,8-tetrahydroquinolin-4-yl]oxy}propyl]-3′,4′,8′,9′-tetrahydro-2′H-spiro[cyclohexane-1,7′-indeno[5,6-b][1,4]dioxepine]-4-carboxylic acid], for which the IC50 in assay [1] (Homo sapiens, NCI-H929, 48 h) was determined as 84.5 nM. Besides, in assay [2], the Ki was determined as 0.028 nM.

With `CC1CCNc2nccc(OC[C@H](C)C[C@H]3Cc4ccccc4[C@]34CC[C@@](Nc3cccc(Cl)c3)(C(=O)O)CC4)c21` (single isomer, unassigned) [Example 642], the IC50 in assay [1] turned out to be 460 nM. Besides, in assay [2], the Ki turned out to be 0.724 nM.

Turning to `C[C@@H](COc1ccnc2c1[C@H](C)CC[C@H]2O)C[C@H]1Cc2cc3c(cc2[C@]12CC[C@@](Nc1cccc(Cl)c1)(C(=O)O)CC2)OCCO3` [Example 962, (1r,4S,7′S)-4-(3-chloroanilino)-7′-[(2R)-3-{[(5R,8R)-8-hydroxy-5-methyl-5,6,7,8-tetrahydroquinolin-4-yl]oxy}-2-methylpropyl]-2′,3′,7′,8′-tetrahydrospiro[cyclohexane-1,6′-indeno[5,6-b][1,4]dioxine]-4-carboxylic acid], the IC50 in assay [1] (Homo sapiens, NCI-H929, 48 h) came out at 42.8 nM. In addition, the Ki in assay [2] came to 0.0109 nM.

As to `COCCOC(=O)[C@]1(Nc2cccc(Cl)c2)CC[C@@]2(CC1)c1cc3c(cc1C[C@@H]2C[C@@H](C)COc1ccnc2c1[C@H](C)CCC2)OCO3` [Example 934, 2-methoxyethyl (1r,4S,6′S)-4-(3-chloroanilino)-6′-[(2R)-2-methyl-3-{[(5R)-5-methyl-5,6,7,8-tetrahydroquinolin-4-yl]oxy}propyl]-6′,7′-dihydro-2′H-spiro[cyclohexane-1,5′-indeno[5,6-d][1,3]dioxole]-4-carboxylate], in assay [1] (Homo sapiens, NCI-H929, 48 h), the IC50 was more than 30000 nM. Further, the Ki in assay [2] was 69 nM.
